We go through 1 molecule from US20220204491A1, “FXR (NR1H4) MODULATING COMPOUNDS” (Gilead Sciences, Inc., priority 2019, published 2022).

By IC50 is commonly meant the point on the concentration scale where inhibition reaches its midpoint.

Molecules are shown by their SMILES.

This data set addresses T1, human UGT1A1 (Homo sapiens, UniProt P22309).
T1 construct: purchased
T1 sequence (P22309 26-533): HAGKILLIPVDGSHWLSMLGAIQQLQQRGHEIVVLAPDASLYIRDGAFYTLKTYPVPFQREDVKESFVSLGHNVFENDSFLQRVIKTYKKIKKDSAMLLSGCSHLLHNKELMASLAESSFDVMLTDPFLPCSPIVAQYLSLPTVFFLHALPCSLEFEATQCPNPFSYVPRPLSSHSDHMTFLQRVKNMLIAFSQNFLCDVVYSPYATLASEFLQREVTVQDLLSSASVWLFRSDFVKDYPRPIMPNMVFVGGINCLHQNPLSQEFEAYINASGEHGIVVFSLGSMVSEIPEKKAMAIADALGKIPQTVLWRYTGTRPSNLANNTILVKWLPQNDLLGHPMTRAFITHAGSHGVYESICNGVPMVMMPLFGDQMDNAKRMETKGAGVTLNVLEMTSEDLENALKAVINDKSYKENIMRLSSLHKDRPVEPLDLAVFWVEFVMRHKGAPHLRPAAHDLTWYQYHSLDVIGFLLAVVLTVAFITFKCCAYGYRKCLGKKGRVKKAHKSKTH
The experiment in a line: UGT1A1 inhibition (estradiol 3-glucuronide formation, Supersomes). It is filed as in vitro ADME. As for the experimental part:
The compound of Formula (I) (Example 1) was tested for inhibition of UGT1A1 and was compared against Comparative Example 1. To perform the assay, sample compound was incubated with human UGT1A1 expressed Supersomes™ (0.25 mg/mL), alamethicin (25 μg/mg) and UDPGA (5 mM) in the presence of probe substrate estradiol (10 μM) for 30 mins at 37° C. A selective UGT1A1 inhibitor, atazanavir, was screened alongside the test compounds as a positive control. The reactions were terminated by quenching an aliquot into two volumes of methanol. The samples were centrifuged at 2500 rpm for 30 mins at 4° C., and aliquots of the supernatant were diluted with formic acid in deionised water (final formic acid concentration 0.1%) and internal standard. Cyprotex generic LC-MS/MS conditions were used to monitor estradiol 3-glucuronide formation. A decrease in the formation of the metabolite compared to vehicle control is used to calculate an IC50 value.

As for `O=C(O)c1ccc(N2CC(O)(c3ccc(OCc4c(-c5c(Cl)cc(F)cc5Cl)noc4C4CC4)cc3Cl)C2)nc1` [Example 1, 6-(3-(2-chloro-4-((5-cyclopropyl-3-(2,6-dichloro-4-fluorophenyl)isoxazol-4-yl)methoxy)phenyl)-3-hydroxyazetidin-1-yl)nicotinic acid], under “Example 1 compared against Comparative Example 1”, the “UGT1A1 inhibition, comparison of the compounds” value was “most potent UGT1A1 inhibition of the compounds compared”. Moreover, under “probe substrate estradiol 10 μM, 30 mins at 37° C.”, the IC50 was 440 nM.
